Test results: patent US12358963B2, “Regenerative polypeptides and uses thereof” (Juvena Therapeutics, Inc., priority 2019, dated 2025)

Experiments:
Format in all cases: cell-based
[1] = tested on: mouse myoblast cells; assay: Mouse myoblast proliferation assay (EdU); details: for % EdU: vehicle 3.14
Protocol: FIG. 5A) Bar graph quantitation of % EdU+ mouse myoblast in response to BMP7. Myoblast were cultured 48h in the presence of BMP7 at indicated dose. Fresh media and BMP7 was added every 24h, followed by 2 hour EdU pulse and fixation. Mean∓S.D. Significant p-values (Vehicle˜BMP7 0.025 ug/mL: 1.21E-07, Vehicle˜BMP7 0.075 ug/mL: 8.05E-07, Vehicle˜BMP7 0.2255 ug/mL: 3.37E-03, Vehicle˜BMP7 0.9 ug/mL: 4.99E-02). FIG. 5B) Bar graph quantitation of % EdU+ human myoblast (person) in response to BMP7. Myoblast were cultured 72h in the presence of BMP7 at indicated dose. Cells were pulsed with EdU for 4 hours before fixation. Mean∓S.D. Significant p-values (Vehicle˜BMP7 1.56 ng/mL: 0.04). (*p<0.05 by Welch's One-Tailed T-test, n=2)
FIG. 6A) Bar graph of % EdU+ mouse myoblast cells compared to vehicle. Mouse myoblast were cultured 48h in the presence of indicated factors, followed by a 2 hour EdU pulse prior to fixation. Mean∓S.D. Significant p-values (FM˜BMP7: 0.008 ug/mL: 3.17E-02, FM˜Leucine: 300 uM BMP7: 0.008 ug/mL: 2.77E-03, FM˜Leucine: 100 uM BMP7: 0.008 ug/mL: 3.72E-05, FM˜Leucine: 900 uM BMP7: 0.008 ug/mL: 2.52E-03). (*p<0.05 by One-Way ANOVA Tukey Honest Significant Difference, n=2-6)
FIG. 7A: Bar graph of % EdU+ mouse myoblast cells compared to vehicle. Mouse myoblast were cultured 48h in the presence of indicated factors. EdU pulse and fixation. Mean∓S.D. (*p<0.05 by Student's One-Tailed T-Test of increased activity, n=2-6)
FIG. 10A) The suspension CHO cells were transiently transfected with either the empty control plasmid or the FGF17-hFcm encoding plasmid. After four days, the culture supernatants were collected and added into the culture of mouse myoblast cells for 48 hours, followed by a 2 hour EdU pulse prior to fixation. […] FIG. 10B) The suspension CHO cells were transiently transfected with the FGF17-hFcm encoding plasmid. After four days, the culture supernatants were collected and FGF17-hFcm was affinity-purified by Protein A membrane column. The purified FGF17-hFcm was added into the culture of mouse myoblast cells for 48 hours, followed by a 2 hour EdU pulse and fixation.
FIG. 11A: SDS-PAGE of culture supernatants from CHO cells transiently transfected with FGF17-hFcm or its mutants encoding plasmids (FGF17d181-216-hFcm, FGF17d204-216-hFcm, FGF17R204QK207Q-hFcm). The expressed FGF17-hFcm proteins and the mutant proteins were indicated by the white arrowheads. FIG. 11B) The culture supernatants from CHO cells transiently transfected with different FGF17 encoding plasmids were added into the culture of mouse myoblast cells for 48 hours followed by 2 hour EdU pulse and fixation.
FIG. 12A) SDS-PAGE of culture supernatants from CHO cells transiently transfected with FGF17-hFcm or its mutants encoding plasmids (FGF17d197-216-hFcm, FGF17K191AK193AS200A-hFcm). The expressed FGF17-hFcm proteins and the mutant proteins were indicated by the white arrowheads. FIG. 12B) The culture supernatants from CHO cells transiently transfected with different FGF17 encoding plasmids were added into the culture of mouse myoblast cells for 48 hours, followed by 2 hour EdU pulse and fixation.
FIG. 14A: Bar graph of % EdU+ mouse myoblast cells compared to vehicle. Myoblast were cultured 48h in the presence of indicated factors. […] Mean∓S.D. Table quantitation of % EdU and p-values (*p<0.05 by One-Way ANOVA Tukey Honest Significant Difference, n=2-6)
FIG. 15A: Bar graph of % EdU+ mouse myoblast cells compared to vehicle. […] Mean∓S.D. Table quantitation of % EdU and p-values shown. […]

[2] = tested on: Mouse myoblasts; assay: Mouse myoblast fusion index with sodium butyrate; details: 48h, vehicle 7.56
Protocol: Mouse myoblasts were treated with PBS or sodium butyrate at concentrations 0.1 nM, 1 nM, and 10 nM. Myoblasts were cultured for 48 hours, with fresh media added every 24 hours. Cells were pulsed for 2-5 hours with EdU (30 uM), ethanol fixed, stained with Hoescht 3342, immunostained for proliferation—as measured by the percent of cells staining positive for EdU (% EdU)—, and immunostained for differentiation—as measured by the increase in cellular area staining positive for embryonic myosin heavy chain (% eMyHC) relative to the negative controls, which received media and vehicle only. […] Significance was determined by a p-value less than 0.05 by the one-way ANOVA Tukey Honest Significant Difference test.
FIG. 2A: Bar graph of fusion index in response to sodium butyrate (NaBut) compared to vehicle. Myoblast were cultured 48h in the presence of NaBut at indicated dose. Fresh media and NaBut were added every 24h. Mean∓S.D. Table quantitation of fusion index and p-values also shown. (*p<0.05 by Student's Two-tailed T-test, n=3-5)

[3] = tested on: human myoblast cells; assay: Human myoblast differentiation, % area eMyHC (IGF2, sodium butyrate); details: 96h, vehicle 6.813
Protocol: Fresh media was added every 24 hours. […] The total area of eMyHc positive cells was analyzed, and treated cells were compared to cells treated with the vehicle alone. […] Myoblast were cultured 96h in the presence of BMP7 at indicated dose. Fresh media and BMP7 was added every 24h. Mean∓S.D. (*p<0.05 by One-Way Anova Tukey Honest Significant Difference, n=2-12) […] Fresh media was added every 24 hours. […] FIG. 3A: Bar graph of % Area eMyHC+ age human myoblast (person) in response to indicated treatment compared to Vehicle (vehicle). Myoblast were cultured 96h in the presence of factors at indicated dose. Fresh media and factors were added every 24h. Mean∓S.D. Significant p-values (Vehicle IGF2: 0.03 ug/mL: 1.42E-08, Vehicle NaBut: 1 nM IGF2: 0.03 ug/mL: 1.79E-11, Vehicle NaBut: 10 nM IGF2: 0.03 ug/mL: 1.80E-11, Vehicle NaBut: 100 nM IGF2: 0.03 ug/mL: 1.79E-11). […] Myoblast were cultured 96h in the presence of BMP7 at indicated dose. Mean±S.D. Significant p-values (IGF2 NaBut: 1 nM IGF2: 0.03 ug/mL: 1.88E-3, Vehicle NaBut: 10 nM IGF2: 0.03 ug/mL: 4.80E-3, Vehicle NaBut: 100 nM IGF2: 0.03 ug/mL: 1.87E-3) (*p<0.05 by One-Way ANOVA Tukey Honest Significant Difference, n=2-12)

[4] = tested on: DM1 human myoblast; assay: Gene expression fold change in DM1 human myoblast; details: 48h; BMP7 50 ng/mL, Butyrate 100 nM, IGF2 200 ng/mL; FM 1.000
[5] = tested on: human myoblast cells; assay: Human myoblast differentiation, percentage area of MyHC; details: Example 3, purified, 96 hours with daily media change; vehicle control 1.384
Protocol: FIG. 1A: The suspension CHO cells were transiently transfected with the IGF2-hFcm encoding plasmid. IGF2-hFcm was affinity-purified by Protein A membrane column. The purified IGF2-hFcm was added into the culture of human myoblast cells for 96 hours. Myosin heavy chain (MyHC) was immunostained and imaged by a fluorescence microscope.
The suspension CHO cells were transiently transfected with the IGF2-LhFc4 encoding plasmid. IGF2-LhFc4 was affinity-purified by Protein A membrane column. The purified IGF2-LhFc4 was added into the culture of human myoblast cells for 96 hours with daily media change. Myosin heavy chain (MyHC) was immunostained and imaged by a fluorescence microscope.
The suspension CHO cells were transiently transfected with the HSA-L-IGF2R61A encoding plasmid. HSA-L-IGF2R61A was affinity-purified by Protein A membrane column. […] Myosin heavy chain (MyHC) was immunostained and imaged by a fluorescence microscope.
Suspension CHO cells were transiently transfected with the IGF2-hFcm encoding plasmid. […] After quantification of the stained MyHC, the percentage area of MyHC was calculated as the percent of pixels within the field that are illuminated above background in the stained channel. […] Significance was determined by a p-value less than 0.05 by the one-way ANOVA Tukey Honest Significant Difference test.

CC(C)C[C@H](N)C(=O)O [Leucine]
Effect on BMP7 mitogenic activity (% EdU+) ([1]; Leucine 100, 300, 900 uM with BMP7 0.008 ug/mL, 48h): Enhances BMP7 Mitogenic Activity

Heparin [reference compound]
% EdU ([1]; Heparin 0.5 ug/mL, 48h): 1.77%
% EdU ([1]; Heparin 1 ug/mL, 48h): 3.01%
% EdU ([1]; Heparin 2 ug/mL, 48h): 2.85%

CCCC(=O)[O-].[Na+] [NaBut, sodium butyrate]
Fusion Index (nuclei/myotube) ([2]; 0.1 nM): 8.44 nuclei/myotube
Fusion Index (nuclei/myotube) ([2]; 1 nM): 31.60 nuclei/myotube
Fusion Index (nuclei/myotube) ([2]; 10 nM): 14.00 nuclei/myotube
% eMyHC ([3]; NaBut 1 nM): 2.321%
% eMyHC ([3]; NaBut 10 nM): 6.199%
% eMyHC ([3]; NaBut 100 nM): 8.341%
MYF5 expression fold change compared to FM [4]: 1.128
MYOD1 expression fold change compared to FM [4]: 1.095
MYOG expression fold change compared to FM [4]: 1.020

IGF2-hFc4: IGF2 fused to hFc4, human IgG4 Fc with S228P point mutation
% MyHC [5]: 6.901%

Hyaluronic Acid [Hyaluronic Acid (HA)]
Effect on BMP7 mitogenic activity (% EdU+) ([1]; hyaluronic acid with BMP7, 48h): Enhances BMP7 Mitogenic Activity
